One test concerns the target T1, human orexin-2 receptor (Homo sapiens, UniProt O43614).
T1 construct: expressed in transfected cells; host or cells: CHO (Chinese hamster ovary) cells, kept under G418 selection
T1 sequence (O43614 1-444): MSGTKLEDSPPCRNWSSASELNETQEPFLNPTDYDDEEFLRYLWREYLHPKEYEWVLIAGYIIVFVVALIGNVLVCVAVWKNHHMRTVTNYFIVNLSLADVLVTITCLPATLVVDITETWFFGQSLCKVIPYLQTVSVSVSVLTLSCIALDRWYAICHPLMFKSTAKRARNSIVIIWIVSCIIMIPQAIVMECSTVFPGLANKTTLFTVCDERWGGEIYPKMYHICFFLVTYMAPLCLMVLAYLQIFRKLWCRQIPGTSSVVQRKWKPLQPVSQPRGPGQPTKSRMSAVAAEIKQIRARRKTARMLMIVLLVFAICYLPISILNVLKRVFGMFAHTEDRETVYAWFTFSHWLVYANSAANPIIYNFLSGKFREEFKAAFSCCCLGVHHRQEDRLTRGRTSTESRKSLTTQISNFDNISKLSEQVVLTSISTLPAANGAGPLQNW
The test is described as follows: Intracellular calcium measurement (FLIPR Tetra), orexin receptor antagonistic activity, OX2. The class given is cell-based. Particulars: CHO cells expressing human orexin-2 receptor, 3 nM orexin-A, conditions B. In a few lines:
(§1)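 Recombinant CHO cells expressing human OX1 or OX2, loaded with fluo-4 AM plus probenecid, were preincubated with antagonist 10 min, then stimulated with 3 nM human orexin-A. Peak fluorescence was compared with vehicle; IC50 derived, sometimes normalized to an on-plate reference compound; two pipetting/cell-splitting conditions were used.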
(Calcium flux is commonly read through the fluorescence of an indicator in the cells.)

The target in the next test is T2, human orexin-1 receptor (Homo sapiens, UniProt O43613).
T2 construct: expressed in transfected cells; host or cells: CHO (Chinese hamster ovary) cells, kept under G418 selection
T2 sequence (O43613 1-425): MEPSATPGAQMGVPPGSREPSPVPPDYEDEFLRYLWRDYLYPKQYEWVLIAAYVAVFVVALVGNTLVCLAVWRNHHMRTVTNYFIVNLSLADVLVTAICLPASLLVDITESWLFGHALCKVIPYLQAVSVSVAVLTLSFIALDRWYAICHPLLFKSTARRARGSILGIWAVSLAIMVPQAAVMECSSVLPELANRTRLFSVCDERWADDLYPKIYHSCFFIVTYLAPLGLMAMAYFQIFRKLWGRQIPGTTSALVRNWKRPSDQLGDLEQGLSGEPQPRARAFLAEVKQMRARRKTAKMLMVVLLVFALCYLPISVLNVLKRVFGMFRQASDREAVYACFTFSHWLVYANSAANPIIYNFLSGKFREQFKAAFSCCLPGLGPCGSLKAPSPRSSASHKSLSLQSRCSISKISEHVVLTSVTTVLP
The test is described as follows: Intracellular calcium measurement (FLIPR Tetra), orexin receptor antagonistic activity, OX1. The class given is cell-based. Particulars: CHO cells expressing human orexin-1 receptor, 3 nM orexin-A, conditions B. In a few lines: as §1

Setting [1] is: normalized (*) using IC50 of on-plate reference compound.

The results in this text go back to patent US20110212968A1, “PHENETHYLAMIDE DERIVATIVES AND THEIR HETEROCYCLIC ANALOGUES” (priority 2008, published 2011).

Take `Cc1cccc(-c2sc(N)nc2C(=O)N(CCc2c[nH]c3ccc(Br)cc23)CC2CC2)c1` [Example 223, 2-Amino-5-m-tolyl-thiazole-4-carboxylic acid [2-(5-bromo-1H-indol-3-yl)-ethyl]-cyclopropylmethyl-amide]: the IC50 was found to be 135 nM on human orexin-2 receptor and 5 nM at human orexin-1 receptor.

Consider `Cc1cccc(-c2sc(N)nc2C(=O)N(CCc2c[nH]c3cc(Cl)ccc23)CC2CC2)c1` [Example 224, 2-Amino-5-m-tolyl-thiazole-4-carboxylic acid [2-(6-chloro-1H-indol-3-yl)-ethyl]-cyclopropylmethyl-amide], for which the values for the half-maximal inhibitory concentration (IC50) at human orexin-2 receptor and at human orexin-1 receptor were 26 nM and 8 nM, respectively.

Turning to `COc1ccc2c(CCN(CC3CC3)C(=O)c3nc(N)sc3-c3cccc(C)c3)c[nH]c2c1` [Example 227, 2-Amino-5-m-tolyl-thiazole-4-carboxylic acid cyclopropylmethyl-[2-(6-methoxy-1H-indol-3-yl)-ethyl]-amide], the IC50 at human orexin-2 receptor came to 17 nM; on human orexin-1 receptor it was 7 nM.

Consider `Cc1cccc(-c2sc(N)nc2C(=O)N(CCc2c[nH]c3c(C)cccc23)CC2CC2)c1` [Example 230, 2-Amino-5-m-tolyl-thiazole-4-carboxylic acid cyclopropylmethyl-[2-(7-methyl-1H-indol-3-yl)-ethyl]-amide], for which the IC50 at human orexin-2 receptor is 18 nM; on human orexin-1 receptor it was 9 nM.

Consider `Cc1cccc(-c2sc(N)nc2C(=O)N(CCc2c[nH]c3cccc(F)c23)CC2CC2)c1` [Example 231, 2-Amino-5-m-tolyl-thiazole-4-carboxylic acid cyclopropylmethyl-[2-(4-fluoro-1H-indol-3-yl)-ethyl]-amide], for which the IC50 amounted to 27 nM on human orexin-2 receptor and 9 nM at human orexin-1 receptor.

With `Cc1cccc(-c2sc(N)nc2C(=O)N(CCc2c[nH]c3ccc(F)cc23)CC2CC2)c1` [Example 232, 2-Amino-5-m-tolyl-thiazole-4-carboxylic acid cyclopropylmethyl-[2-(5-fluoro-1H-indol-3-yl)-ethyl]-amide], the IC50 at human orexin-2 receptor worked out at 16 nM; at human orexin-1 receptor, 7 nM.

On to `Cc1cccc(-c2sc(N)nc2C(=O)N(CCc2c[nH]c3cc(F)ccc23)CC2CC2)c1` [Example 233, 2-Amino-5-m-tolyl-thiazole-4-carboxylic acid cyclopropylmethyl-[2-(6-fluoro-1H-indol-3-yl)-ethyl]-amide], for which the figures for the IC50 at human orexin-2 receptor (setting [1]) and on human orexin-1 receptor (setting [1]) were 22 nM and 37 nM, respectively.

Take `Cc1cccc(-c2sc(N)nc2C(=O)N(CCc2c[nH]c3c(F)cccc23)CC2CC2)c1` [Example 234, 2-Amino-5-m-tolyl-thiazole-4-carboxylic acid cyclopropylmethyl-[2-(7-fluoro-1H-indol-3-yl)-ethyl]-amide]: the IC50 at human orexin-2 receptor worked out at 16 nM; on human orexin-1 receptor, 5 nM.

Regarding `COc1ccc(CCN(CC2CC2)C(=O)c2nc(C)sc2-c2ccc(C)c(C)c2)cn1` [Example 254, 5-(3,4-Dimethyl-phenyl)-2-methyl-thiazole-4-carboxylic acid cyclopropylmethyl-[2-(6-methoxy-pyridin-3-yl)-ethyl]-amide], the IC50 amounted to 232 nM on human orexin-2 receptor and 1770 nM at human orexin-1 receptor.

Take `CN(C)c1cccc(-c2ocnc2C(=O)N(CCc2c[nH]c3ccc(F)cc23)CC2CC2)c1` [Example 261, 5-(3-Dimethylamino-phenyl)-oxazole-4-carboxylic acid cyclopropylmethyl-[2-(5-fluoro-1H-indol-3-yl)-ethyl]-amide]: the IC50 is 185 nM at human orexin-2 receptor (setting [1]) and 576 nM at human orexin-1 receptor (setting [1]).

In the case of `Cc1nc(-c2ccc(Cl)cc2)c(C(=O)N(CCc2c[nH]c3ccc(F)cc23)CC2CC2)s1` [Example 262, 4-(4-Chloro-phenyl)-2-methyl-thiazole-5-carboxylic acid cyclopropylmethyl-[2-(5-fluoro-1H-indol-3-yl)-ethyl]-amide], the IC50 stood at 470 nM at human orexin-2 receptor (setting [1]) and 9210 nM at human orexin-1 receptor (setting [1]).

With `Cc1nc(C(=O)N(CCc2c[nH]c3ccc(F)cc23)CC2CC2)c(-c2ccc(C)c(F)c2F)s1` [Example 273, 5-(2,3-Difluoro-4-methyl-phenyl)-2-methyl-thiazole-4-carboxylic acid cyclopropylmethyl-[2-(5-fluoro-1H-indol-3-yl)-ethyl]-amide], the IC50 came out at 64 nM at human orexin-2 receptor (setting [1]) and 407 nM at human orexin-1 receptor (setting [1]).

Turning to `Cc1ccc(-c2scnc2C(=O)N(CCc2c[nH]c3ccc(F)cc23)CC2CC2)cc1C` [Example 274, 5-(3,4-Dimethyl-phenyl)-thiazole-4-carboxylic acid cyclopropylmethyl-[2-(5-fluoro-1H-indol-3-yl)-ethyl]-amide], the results for the IC50 on human orexin-2 receptor (setting [1]) and at human orexin-1 receptor (setting [1]) were 66 nM and 155 nM, respectively.

As to `COc1nc(C(=O)N(CCc2c[nH]c3ccc(F)cc23)CC2CC2)c(-c2cccc(C)c2)s1` [Example 275, 2-Methoxy-5-m-tolyl-thiazole-4-carboxylic acid cyclopropylmethyl-[2-(5-fluoro-1H-indol-3-yl)-ethyl]-amide], the IC50 on human orexin-2 receptor (setting [1]) was 70 nM; at human orexin-1 receptor (setting [1]) it was 201 nM.

Consider `Cc1ccc(-c2sc(C3CC3)nc2C(=O)N(CCc2c[nH]c3ccc(F)cc23)CC2CC2)cc1F` [Example 276, 2-Cyclopropyl-5-(3-fluoro-4-methyl-phenyl)-thiazole-4-carboxylic acid cyclopropylmethyl-[2-(5-fluoro-1H-indol-3-yl)-ethyl]-amide], for which the IC50 at human orexin-2 receptor (setting [1]) stood at 601 nM; on human orexin-1 receptor (setting [1]), 2260 nM.

`Cc1cccc(-c2sc(CN(C)C)nc2C(=O)N(CCc2c[nH]c3ccc(F)cc23)CC2CC2)c1` [Example 279, 2-Dimethylaminomethyl-5-m-tolyl-thiazole-4-carboxylic acid cyclopropylmethyl-[2-(5-fluoro-1H-indol-3-yl)-ethyl]-amide]: the IC50 at human orexin-2 receptor (setting [1]) came to 283 nM; at human orexin-1 receptor (setting [1]) it was 5620 nM.

Take `CCCN(CCc1c[nH]c2ccc(F)cc12)C(=O)c1nccnc1-c1ccccc1` [Example 283, 3-Phenyl-pyrazine-2-carboxylic acid [2-(5-fluoro-1H-indol-3-yl)-ethyl]-propyl-amide]: the IC50 on human orexin-2 receptor (setting [1]) was found to be 16 nM; at human orexin-1 receptor (setting [1]), 192 nM.

`COC(=O)CN(CCc1c[nH]c2ccc(F)cc12)C(=O)c1nccnc1-c1ccccc1` [Example 286, [[2-(5-Fluoro-1H-indol-3-yl)-ethyl]-(3-phenyl-pyrazine-2-carbonyl)-amino]-acetic acid methyl ester]: the IC50 at human orexin-2 receptor (setting [1]) worked out at 322 nM; at human orexin-1 receptor (setting [1]), 2730 nM.

`CC(C)N(CCc1c[nH]c2ccc(F)cc12)C(=O)c1nccnc1-c1ccccc1` [Example 287, 3-Phenyl-pyrazine-2-carboxylic acid [2-(5-fluoro-1H-indol-3-yl)-ethyl]-isopropyl-amide]: the IC50 on human orexin-2 receptor (setting [1]) turned out to be 585 nM; at human orexin-1 receptor (setting [1]), 2440 nM.

On to `O=C(c1nccnc1-c1ccccc1)N(CCO)CCc1c[nH]c2ccc(F)cc12` [Example 289, 3-Phenyl-pyrazine-2-carboxylic acid [2-(5-fluoro-1H-indol-3-yl)-ethyl]-(2-hydroxy-ethyl)-amide], for which the IC50 on human orexin-2 receptor (setting [1]) is 627 nM; on human orexin-1 receptor (setting [1]), greater than 4270 nM.

As to `CCCN(CCc1c[nH]c2ccc(F)cc12)C(=O)c1nccnc1-c1ccc(C)c(C)c1` [Example 292, 3-(3,4-Dimethyl-phenyl)-pyrazine-2-carboxylic acid [2-(5-fluoro-1H-indol-3-yl)-ethyl]-propyl-amide], the IC50 at human orexin-2 receptor (setting [1]) was determined as 10 nM; on human orexin-1 receptor (setting [1]), 163 nM.

For `Cc1ccc(-c2nccnc2C(=O)N(CCc2c[nH]c3ccc(F)cc23)CC(N)=O)cc1C` [Example 294, 3-(3,4-Dimethyl-phenyl)-pyrazine-2-carboxylic acid carbamoylmethyl-[2-(5-fluoro-1H-indol-3-yl)-ethyl]-amide], the IC50 on human orexin-2 receptor (setting [1]) was found to be 706 nM; on human orexin-1 receptor (setting [1]), 3820 nM.

`Cc1ccc(-c2nccnc2C(=O)N(CCc2c[nH]c3ccc(F)cc23)CC(F)F)cc1C` [Example 297, 3-(3,4-Dimethyl-phenyl)-pyrazine-2-carboxylic acid (2,2-difluoro-ethyl)-[2-(5-fluoro-1H-indol-3-yl)-ethyl]-amide]: the IC50 at human orexin-2 receptor (setting [1]) stood at 136 nM; at human orexin-1 receptor (setting [1]), 702 nM.

Take `COc1ccc(-c2sc(C)nc2C(=O)N(CCc2c[nH]c3ccc(F)cc23)CC(=O)N(C)C)cn1` [Example 303, 5-(6-Methoxy-pyridin-3-yl)-2-methyl-thiazole-4-carboxylic acid dimethylcarbamoylmethyl-[2-(5-fluoro-1H-indol-3-yl)-ethyl]-amide]: the IC50 is 551 nM on human orexin-2 receptor (setting [1]) and 2350 nM at human orexin-1 receptor (setting [1]).

Broadly, the IC50 is the point on the concentration scale where inhibition reaches its midpoint.
